Where two headings read alike, the source gives them in different places. Values belong to the compound of their own block, whether it stands above or below them.
Experiments:
bovine oocytes = settings: 4 or 5.5 mol/L EG in a single step; cited from earlier work
[1] = cited from earlier work; for concentration required to maintain a vitreous state during slow warming: aqueous solution with this compound as the only solute; for total solute required to maintain a vitreous state during cooling and warming: prior analysis
[2] = test system: mature (MII) human oocytes
Protocol: Measurements of oocyte permeability were conducted at different temperatures on an inverted microscope (Leica DMIRB, China). Perfusion of the oocytes was performed as previously described and validated in the laboratory Oocytes were placed in 20 μl drops of Hepes-HTF (Irvine Scientific) with 10% SSS in a petri dish covered with mineral oil (Vitrolife; Englewood, Colo., USA) to prevent evaporation. An initial photograph was taken of the oocyte in order to calculate the initial volume. […] When the perfusate merged with the 20 μl drop of base medium, photographs of the oocytes were taken at regular intervals.
The oocytes were held in place during the experiment using a glass holding pipette (Humagen Holding MPH-MED-30, I.D.-20 μm, O.D.-95˜120 μm) and micromanipulators (#RI MODEL SAS11/2-E, Integra Research Instruments, UK). For temperatures lower than ambient, a 35 mm Petri dish (Falcon 35-1008) was placed in an aluminum chamber that was cooled with circulating liquid via a cooling bath (Fisher model 9109) and pumped through the aluminum chamber using polymer tubing. The bottom of the dish was wrapped in aluminum foil and a square hole was cut in the foil to facilitate viewing the oocyte. This was performed so the dish would fit snugly in the chamber to facilitate heat transfer from the chamber to the dish. The temperature in the cooling bath was set to either −2° C. or +7° C. for the 2 cold temperatures. The actual temperature of the media in the dish was warmer than this due to heat exchange of the fluid as it circulated through the tubing and chamber.
For the third treatment, oocyte permeability was measured at ambient temperature (˜25° C.) where the perfusion took place in a 50 mm Petri dish (Falcon 35-1006) placed on the microscope stage with no heating or cooling. Finally, the warmest temperature was attained in a similar fashion but the temperature of the media was raised by using a microscope stage warmer set to 39° C. Variations in temperature of the media occurred due to day-to-day fluctuations in temperature in the laboratory. However, the actual temperature of the media for each replicate during the experiment was measured using a type-T (copper/constantan) thermocouple and an electronic thermometer (model 51 II, Fluke Corporation, Everett, Wash. USA).
After the experimental run, the oocyte was released from the holding pipette on the micromanipulator and the temperature of the medium was measured such that the thermocouple was visible in the microscope field of view, ensuring that the temperature was recorded at the exact location of the oocyte. […] The exact time of these transitions was recorded during each replication and was accounted for during the calculations to estimate the permeability parameters. […]

mouse oocytes = settings: cited from earlier work
Rhesus macaque oocytes = settings: single-step addition and removal; cited from earlier work
[3] = Differential scanning calorimetry of EG/sucrose/saline solutions (vitreous state during cooling and warming); assay type: physicochemical; settings: for total concentration of the solution necessary to prevent crystallization during warming: cooling 100° C/min, warming 10° C/min; for DSC thermogram during warming: sucrose 0.3 molal with EG
Protocol: This experiment was designed to determine the amount of EG necessary to maintain an ice-free (i.e. vitreous) state during cooling to cryogenic temperatures ([…]; below the glass transition temperature of these solutions) and warming, when the sucrose concentration ranged from 0.1 to 1.1 molal (mol/kg; equivalent to 0.053 to 0.53 molar (mol/L)). In studies of the physical properties of solutions, components of the solutions are usually measured by weight, not volume. […] Furthermore, concentrations are usually reported in weight fractions (weight percent (w/w, or wt %)). These conventions were used in this experiment and references was made to the equivalent molar concentrations when comparing the results to previously published studies.
A Diamond Differential Scanning Calorimeter (DSC; Perkin-Elmer Waltham, Mass., USA) outfitted with an autosampler and CryoFill liquid nitrogen cooling system was employed for the thermal analysis. The solutions were composed of water (5 g) and NaCl (0.0045 g) to which various amounts of sucrose and EG were added. For this experiment, spectrophotometric grade (>99%) EG was utilized. All components were weighed on an analytical balance. Errors between the target and actual weight percent were less than 0.1% in all instances. To test the vitrification properties of the solutions, 5 μl (˜0.0055 grams) were loaded into standard 10 μl aluminum DSC pans (Perkin-Elmer Part # BO14-3015), and the pans were hermetically sealed. Embryo-grade water and HPLC-grade (>99.9% purity) cyclohexane were also run as calibration standards.
Analyses were conducted at a cooling rate of 100° C./min and a warming rate of 10° C./min to be consistent with previous studies. […] Random noise was estimated by determining the standard deviation of the actual signal from the expected value from the polynomial fit. When an apparent crystallization peak followed by a melting peak in the expected temperature range was noted, and the maximum point on the melting peak was beyond three standard deviations from the expected value, it was classified as a thermal event. Only when three independent solutions confirmed the absence of crystallization and melting was the solution classified as having achieved and maintained a vitreous state throughout the cooling and warming procedure.

SMILES: OCCO [EG, ethylene glycol]
effect on developmental potential (bovine oocytes): significant reduction | concentration required to maintain a vitreous state during slow warming [1]: ~59 wt % | EG concentration necessary to maintain a vitreous state ([1]; cooling and warming at the DSC rates (100 and 10° C/min)): 59 wt % | EG concentration that should maintain a vitreous state ([1]; warming rate on the order of 1×10^3° C/min): 50 wt % | EG concentration that should maintain a vitreous state ([1]; warming rate on the order of 1×10^4° C/min): 48 wt % | Lp (hydraulic conductivity) in the presence of EG ([2]; 6.7° C): 0.15 μm/(min·atm) | Lp (hydraulic conductivity) in the presence of EG ([2]; 35.7° C): 1.17 μm/(min·atm) | activation energy for Lp ([2]; Arrhenius plot, 95% CI 13.19 to 15.65): 14.42 kcal/mol | activation energy for Ps ([2]; Arrhenius plot, 95% CI 19.49 to 22.91): 21.20 kcal/mol | effect on development compared to untreated oocytes (mouse oocytes; 6 mol/L EG for 5 minutes): no effect on development | reduction of developmental potential (mouse oocytes; 7 mol/L EG, 2-step exposure): 30% | mean blastocyst development rate (mouse oocytes; 8 mol/L EG, exposure less than 1 minute, controls ~62%): ~50% | EG concentration causing membrane damage (Rhesus macaque oocytes): ≥ 3 mol/L

total concentration of the solution necessary to prevent crystallization during warming ([3]; 0.1 mol/kg sucrose with EG in saline): 59 wt % | total concentration of the solution necessary to prevent crystallization during warming ([3]; 0.3 mol/kg sucrose with EG in saline): 59 wt % | total concentration of the solution necessary to prevent crystallization during warming ([3]; 0.5 mol/kg sucrose with EG in saline): 59 wt % | total concentration of the solution necessary to prevent crystallization during warming ([3]; 0.7 mol/kg sucrose with EG in saline): 60 wt % | total concentration of the solution necessary to prevent crystallization during warming ([3]; 0.9 mol/kg sucrose with EG in saline): 61 wt % | total concentration of the solution necessary to prevent crystallization during warming ([3]; 1.1 mol/kg sucrose with EG in saline): 61 wt % | DSC thermogram during warming ([3]; total solute 55% weight): crystallization and melting peaks
SMILES: OC[C@H]1O[C@@](CO)(O[C@H]2O[C@H](CO)[C@@H](O)[C@H](O)[C@H]2O)[C@@H](O)[C@@H]1O [sucrose]
DSC thermogram during warming ([3]; total solute 59 weight %): no evidence of crystallization and melting | concentration required to maintain a vitreous state during slow warming [1]: > 70 wt % | total solute required to maintain a vitreous state during cooling and warming ([1]; sucrose 0 mol/kg with EG): 59 wt % | total solute required to maintain a vitreous state during cooling and warming ([1]; sucrose 0.1 mol/kg with EG): 60 wt % | total solute required to maintain a vitreous state during cooling and warming ([1]; sucrose 0.5 mol/kg with EG): 61 wt % | total solute required to maintain a vitreous state during cooling and warming ([1]; sucrose 1.0 mol/kg with EG): 65 wt %
